Assay results from patent US8114862B2, “TGR5 modulators and methods of use thereof” (Intercept Pharmaceuticals, Inc., priority 2008, dated 2012).
Read-outs that look alike come from different tables or passages of the source. Marks after values point to notes of the source that are not given here.

Columns and labels:
in vitro [1] = settings: human, s9
[2] = Choleretic effect (bile flow) in bile fistula rat, id and iv infusion; type: in vivo; settings: for SV0: maximum bile secretion rate: 1 (μmol/min)/kg bw over 1 h
LXRα = target: T1, LXRα (Homo sapiens, UniProt Q13133); assay: LXR coactivator recruitment (alphascreen); type: biochemical
T1 sequence (Q13133 1-447): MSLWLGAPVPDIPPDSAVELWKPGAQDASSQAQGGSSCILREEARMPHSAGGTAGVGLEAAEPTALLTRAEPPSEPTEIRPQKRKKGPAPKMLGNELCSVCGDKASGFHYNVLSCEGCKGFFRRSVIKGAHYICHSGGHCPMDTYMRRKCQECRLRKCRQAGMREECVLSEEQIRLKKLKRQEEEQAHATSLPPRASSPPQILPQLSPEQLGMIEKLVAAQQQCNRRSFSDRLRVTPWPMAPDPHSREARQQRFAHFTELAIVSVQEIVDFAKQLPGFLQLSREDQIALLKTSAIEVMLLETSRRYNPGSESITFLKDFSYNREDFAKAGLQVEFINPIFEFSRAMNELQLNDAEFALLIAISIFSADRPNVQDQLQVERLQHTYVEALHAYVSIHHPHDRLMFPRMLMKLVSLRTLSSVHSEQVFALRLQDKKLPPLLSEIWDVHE

FXR = target: T2, FXR (Homo sapiens, UniProt Q96RI1); assay: Alphascreen coactivator recruitment assay; type: biochemical; set-up: 10 nM of purified GST-tagged FXR-LBD protein; settings: Table 8
T2 sequence (Q96RI1 262-486 limits assumed): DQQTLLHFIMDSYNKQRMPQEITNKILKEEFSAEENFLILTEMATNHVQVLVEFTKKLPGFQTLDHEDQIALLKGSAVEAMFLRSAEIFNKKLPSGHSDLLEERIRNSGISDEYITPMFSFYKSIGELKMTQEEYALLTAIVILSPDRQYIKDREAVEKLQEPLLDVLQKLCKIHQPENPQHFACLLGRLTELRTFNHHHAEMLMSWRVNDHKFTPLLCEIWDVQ

diet-induced obese mice = settings: 0.5% w/w in diet; cited from earlier work
HepG2 cells [3] = assay: cells; settings: Homo sapiens, HepG2, 4 h, read-out: NECROSIS LDH release EC50
bovine serum albumin [4] = target: T3, bovine serum albumin (Bos taurus, UniProt P02769); assay: Albumin binding by equilibrium dialysis; type: in vitro ADME; settings: 100 μM BA in 5% bovine serum albumin-saline, pH 7.2
T3 sequence (P02769 25-607): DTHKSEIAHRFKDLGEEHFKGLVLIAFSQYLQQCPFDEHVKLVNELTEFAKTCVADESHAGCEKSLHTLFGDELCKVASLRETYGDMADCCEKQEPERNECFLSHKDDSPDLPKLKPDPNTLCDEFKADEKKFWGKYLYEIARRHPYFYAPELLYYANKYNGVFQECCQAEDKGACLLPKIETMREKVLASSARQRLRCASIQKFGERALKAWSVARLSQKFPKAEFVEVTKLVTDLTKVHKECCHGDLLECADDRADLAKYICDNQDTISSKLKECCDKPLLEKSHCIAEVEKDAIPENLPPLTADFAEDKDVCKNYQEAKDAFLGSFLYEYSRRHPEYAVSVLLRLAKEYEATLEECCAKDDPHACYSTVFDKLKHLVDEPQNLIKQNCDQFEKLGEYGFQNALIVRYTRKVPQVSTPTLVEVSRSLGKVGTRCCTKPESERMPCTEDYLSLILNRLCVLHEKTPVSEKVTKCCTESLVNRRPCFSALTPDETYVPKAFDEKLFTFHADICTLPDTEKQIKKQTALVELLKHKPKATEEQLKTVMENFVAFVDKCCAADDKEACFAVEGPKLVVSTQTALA
Description: The extent of albumin binding was evaluated by equilibrium dialysis at a fixed BA-albumin ratio. BA was dissolved at a concentration of 100 μM in 5% bovine serum albumin-saline solution (pH 7.2) and left to stand for 24 h at 25° C. Two milliliters of this solution was dialyzed in cellulose sacs having a molecular weight cut-off of 12-14,000 against 25 ml of saline solution. The system was equilibrated by mechanical gently shaking for 72 h at 25° C. BA concentrations of the dialyzed solution (corresponding to the free unbound fraction) and of the starting solution were determined with HPLC-ESI-MS/MS in the same conditions of the previous analysis.
The percent of albumin binding was calculate from the initial BA concentration and from the unbound concentration in the dialyzed fraction.

HepG2 cells [5] = assay: cells; settings: Homo sapiens, HepG2, 4 h, read-out: APOPTOSIS Caspase-3 activation EC50
TGR5 = target: T4, TGR5 (Homo sapiens, UniProt Q8TDU6); assay: TGR5 receptor in vitro assay (Table 1); type: cell-based
T4 sequence (Q8TDU6 1-330): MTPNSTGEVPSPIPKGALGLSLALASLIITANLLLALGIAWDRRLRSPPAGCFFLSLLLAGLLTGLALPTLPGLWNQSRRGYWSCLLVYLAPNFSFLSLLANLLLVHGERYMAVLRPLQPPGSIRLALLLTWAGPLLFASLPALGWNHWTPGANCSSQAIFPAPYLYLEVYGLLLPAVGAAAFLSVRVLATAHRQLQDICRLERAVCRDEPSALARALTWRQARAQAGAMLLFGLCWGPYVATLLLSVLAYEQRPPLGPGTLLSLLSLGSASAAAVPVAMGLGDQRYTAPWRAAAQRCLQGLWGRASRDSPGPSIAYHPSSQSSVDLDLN

PPARδ = target: T5, PPARδ (Homo sapiens, UniProt Q03181); assay: PPARδ coactivator recruitment assay
T5 sequence (Q03181 211-439 limits assumed): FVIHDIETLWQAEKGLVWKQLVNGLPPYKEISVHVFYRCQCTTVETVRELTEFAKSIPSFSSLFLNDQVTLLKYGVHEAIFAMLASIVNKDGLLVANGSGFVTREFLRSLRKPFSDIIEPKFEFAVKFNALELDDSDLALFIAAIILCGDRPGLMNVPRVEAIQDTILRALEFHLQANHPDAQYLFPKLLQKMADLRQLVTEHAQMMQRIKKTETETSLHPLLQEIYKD

VDR = target: T6, VDR (Homo sapiens, UniProt P11473); assay: VDR coactivator recruitment assay
T6 sequence (P11473 127-423 limits assumed): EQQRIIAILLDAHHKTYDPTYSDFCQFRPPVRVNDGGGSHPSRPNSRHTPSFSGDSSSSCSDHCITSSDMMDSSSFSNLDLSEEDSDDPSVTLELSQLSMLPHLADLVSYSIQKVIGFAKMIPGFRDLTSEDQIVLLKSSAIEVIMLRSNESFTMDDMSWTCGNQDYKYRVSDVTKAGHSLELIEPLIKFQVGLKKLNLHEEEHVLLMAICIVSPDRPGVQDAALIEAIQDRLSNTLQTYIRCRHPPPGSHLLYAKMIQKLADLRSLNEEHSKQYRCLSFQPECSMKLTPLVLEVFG

CAR = target: T7, CAR (Homo sapiens, UniProt Q14994); assay: CAR coactivator recruitment (Lanthascreen); type: biochemical; settings: for EC50: read-out: CAR Activation EC50
T7 construct: purchased Invitrogen
T7 sequence (Q14994 109-352 limits assumed): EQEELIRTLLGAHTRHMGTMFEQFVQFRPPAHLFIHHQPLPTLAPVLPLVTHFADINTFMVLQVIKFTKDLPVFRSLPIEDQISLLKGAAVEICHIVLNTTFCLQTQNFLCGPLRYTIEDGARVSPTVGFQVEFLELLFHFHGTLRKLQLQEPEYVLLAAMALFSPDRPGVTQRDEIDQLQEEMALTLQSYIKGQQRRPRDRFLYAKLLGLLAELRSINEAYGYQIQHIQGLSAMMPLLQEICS
Description: CAR: Coactivator Recruitment (Lanthascreen)
Lanthascreen assay (Invitrogen) was used for nulear receptor selectivity assay. The kit uses a terbium-labeled anti-GST antibody, a fluorescein-labeled coactivator peptide, and a NR ligand-binding domain that is tagged with glutathione-S-transferase (GST) in a homogenous mix-and-read assay format. […] Following 1 hour incubation in the dark, TR-FRET measurements were made in the Envision. […] The data was analyzed using GraphPad Prism using the sigmoidal curve equation with variable slope to obtain EC50 values.

[6] = Octanol/water partition coefficient (shake-flask); type: physicochemical; settings: pH 8
[7] = Biliary secretion and metabolism in bile fistula rat, id and iv infusion; settings: rat, bile, 1 μmol/kg/min
intestinal bacteria = assay: Metabolic stability in human stool culture (7α-dehydroxylation); type: in vitro ADME
Description: Homogenized fresh human stools (500 mg) were transferred into sterile vials to which 5 mL of sterilized chopped meat-glucose medium (Scott Lab., Fiskville, R.I.) was added. BA was then added at a final concentration of 0.05 mM. […] The samples were centrifuged at 3500 rpm for 10 min; from the supernatant the BA were isolated by C-18 solid-phase extraction and analyzed by TLC and HPLC-ES-MS/MS.
Thin-layer chromatography (TLC), utilizing silica gel 0.25 mm thickness plates (Merck, Darmstat, Germany), was employed as the first screening test. The solvent system used for the separation of conjugated BA was composed of propionic acid/isoamyl acetate/water/N-propanol (3:4:1:2, v/v/v/v; solvent I), and that of the unconjugated BA was acetic acid/carbon tetrachloride/isopropyl ether/isoamyl acetate/water/N-propanol/benzene (1:4:6:8:2:2, v/v/v/v/v/v; solvent II).

[8] = Critical micellar concentration by surface tension; type: physicochemical; settings: […] NaCl water solution
Description: The critical micellar concentration (CMC) was determined by surface tension (ST) measurements using a maximum bubble-pressure method which give surface tension values […] by potential impurities like static methods are. The tensiometer was a […] Research Corp., Milwaukee, Wis.) equipped with two glass probes of 0.5 and 4.0 mm diameters connected to a source of nitrogen. […] The surface tension values were plotted against the logarithm of the bile salt concentration; the regression lines corresponding to the two parts of the curve (monomeric and micellar phases) were calculated using the method of least squares, and the intersection of the lines was taken as the CMC value. From the ST vs concentration curves the value of the surface tension at the CMC (equilibrium between monomers and multimers species) was also calculated giving information about the detergency power which is related to the size of the micelles with associate surface tension lowering capacity. The CMC was evaluated by surface tension measurements in non equilibrium conditions i.e. in conditions that impurities slightly affect the surface tension results (FIG. 10).

[9] = values from literature; cited from earlier work
[10] = values from literature; cited from earlier work; remark: listed apart in the source
[11] = values from literature; cited from earlier work; remark: listed apart in the source
bovine serum albumin [12] = target: T3, bovine serum albumin; settings: values from literature; cited from earlier work
in vitro [13] = settings: human, HepG2 cells
HepG2 cells [14] = assay: HepG2 cytotoxicity (ATP decrease); settings: read-out: CYTOTOXICITY ATP decrease EC50; 4 h
Water solubility = settings: 0.1 M HCl
wild-type mice = assay: Locomotor activity of wild-type mice given Ex-4; type: in vivo, mouse
Source text: To further evaluate the metabolic role of enhanced TGR5 signaling, we assessed the impact of transgenic overexpression of TGR5 in vivo in the context of DIO in mice. TGR5 transgenic mice (TGR5-Tg) were generated by oocyte injection of the bacterial artificial chromosome (BAC) RP23-278N1. […] The absence of weight gain in TGR5-Tg mice, in the wake of an increase in energy expenditure, was explained by a reduction of locomotor activity. Since GLP-1 receptor knockout mice display a marked hyperactivity (Hansotia et al., 2007, J. Clin. Invest. 117, 143-152), we administered the GLP-1 receptor agonist Ex-4 to wild-type mice in order to assess whether the decrease in locomotor activity in TGR5-Tg mice could be linked to GLP-1 secretion.

Molecule: O=c1ccc2ccc(O)cc2o1 [7-Hydroxy Coumarine, reference compound]
- half-life (in vitro [1]): 8.5 min

Molecule: C[C@H](CCC(=O)O)[C@H]1CC[C@H]2[C@@H]3[C@H](O)C[C@@H]4C[C@H](O)CC[C@]4(C)[C@H]3C[C@H](O)[C@]12C [CA, cholic acid]
- SV0: maximum bile secretion rate ([2]; id infusion): 64 ± 6 (μL/min)/kg bw
- SV0: maximum bile secretion rate ([2]; iv infusion): (78 ± 8) (μL/min)/kg bw
- LXRα Activation EC50 (LXRα): No activity
- FXR Activation EC50 (FXR): No activity
- prevention and treatment of metabolic syndrome (diet-induced obese mice): efficiently prevents and treats metabolic syndrome

Molecule: C[C@H](CCC(=O)O)[C@H]1CC[C@H]2[C@@H]3[C@H](O)C[C@@H]4C[C@H](O)CC[C@]4(C)[C@H]3CC[C@]12C [CDCA, ChenoDeoxyCholicAcid]
- EC50 (HepG2 cells [3]): > 1000 µM
- maximum bile flow rate ([2]; duodenal infusion 1 μmol/kg/min, 1 hour): ≤ 4.8 mL/h/kg
- SV0: maximum bile secretion rate ([2]; id infusion): 57 ± 7 (μL/min)/kg bw
- SV0: maximum bile secretion rate ([2]; iv infusion): (51 ± 9) (μL/min)/kg bw
- Albumin Binding (bovine serum albumin [4]): 93%
- EC50 (HepG2 cells [5]): 890 µM
- TGR5 Data Efficacy (TGR5): 100%
- PPARδ Activation EC50 (PPARδ): No activity
- VDR Activation EC50 (VDR): No activity
- EC50 (CAR): > 250 µM
- LXRα Activation EC50 (LXRα): No activity
- LogPA- (1-octanol-water partition coefficient, ionized species) [6]: 2.2
- fraction unbound at 4 h ([7]; iv): 0.04
- fraction unbound at 4 h ([7]; other: duodenal infusion (id)): 0.03 ± 0.01
- metabolism (7-dehydroxylation) to lithocholic acid (intestinal bacteria): almost completely metabolized
- half-life time (intestinal bacteria; human): almost one hour
- CMC […] Na+ [8]: 3.2 mM
- STCMC (surface tension at CMC) [8]: 45.5 Dyne/cm

Molecule: C[C@H](CCC(=O)O)[C@H]1CCC2C3C(CC[C@@]21C)[C@@]1(C)CC[C@@H](O)CC1[C@@H](C)[C@@H]3O (some centres unmarked) [Compound 6MUDCA]
- LogPA- (1-octanol-water partition coefficient, ionized species) [9]: 1.3*
- CMC […] Na+ [10]: 4.2* mM
- Ws (water solubility, protonated species) [11]: 28* μM
- Albumin Binding (bovine serum albumin [12]): 80* %

Molecule: C[C@H](CCC(=O)O)[C@H]1CC[C@H]2[C@@H]3CC[C@@H]4C[C@H](O)CC[C@]4(C)[C@H]3CC[C@]12C [LCA, lithocholic acid]
- EC50 (HepG2 cells [3]): 105 µM
- EC50 (HepG2 cells [5]): 65 µM
- PPARδ Activation EC50 (PPARδ): No activity
- VDR Activation EC50 (VDR): No activity
- EC50 at 4 h (in vitro [13]): 84 µM
- CAR Activation EC50 (CAR): No activity
- LXRα Activation EC50 (LXRα): No activity
- FXR Activation EC50 (FXR): No activity

Molecule: C[C@H](CCC(=O)O)[C@H]1CC[C@H]2[C@@H]3[C@@H](O)C[C@@H]4C[C@H](O)CC[C@]4(C)[C@H]3CC[C@]12C [UDCA]
- Albumin Binding (bovine serum albumin [4]): 94%
- PPARδ Activation EC50 (PPARδ): No activity
- VDR Activation EC50 (VDR): No activity
- EC50 (CAR): > 250 µM
- LXRα Activation EC50 (LXRα): No activity
- LogPA- (1-octanol-water partition coefficient, ionized species) [6]: 2.2
- EC50 (HepG2 cells [14]): > 1000 µM
- Ws (water solubility, protonated species) (Water solubility): 7.5 µM
- CMC […] Na+ [8]: 6.0 mM
- STCMC (surface tension at CMC) [8]: 50.5 Dyne/cm

Molecule: Ex-4: the GLP-1 receptor agonist Ex-4
- locomotor activity (wild-type mice): efficiently and dose-dependently reduced locomotor activity
